Measurements as given in patent publication US20250009734A1, “METHODS OF INHIBITING FOXO1 FOR TREATMENT OF LYMPHATIC DISORDERS” (UNIVERSITY OF SOUTH FLORIDA, priority 2023, published 2025).

Tests used:
[1] = test system: human dermal lymphatic endothelial cells (hdLECs); assay: Western blot quantification of protein levels in cultured hdLECs; type: cell-based; conditions: 0.5 μM, 48 hours, vs vehicle control
Description: FIGS. 2A-2F. AS1842856 elevates protein expression of valve genes and promotes b-catenin nuclear localization in cultured hdLECs. (A) hdLECs were cultured under static condition and treated for 48 hours with 0.5 μM DMSO (vehicle control) or 0.5 μM AS treatment. Thereafter, proteins were extracted, and western blot perform for the indicated proteins. ACTB is the loading control. (B) Quantification results of indicated proteins in western blot from three independent experiments. (C-F) Immunostaining of cultured hdLECs for PROX1 and CTNNB1 protein. All values are mean±SEM. n=3 experiment repeats; ns=not significant; *p≤0.05, **p≤0.01, ***p≤0.001. Vehicle control: 0.5 μM DMSO for 48 hours treatment. AS1842856: 0.5 μM AS1842856 for 48 hours treatment. Cells were stained for PROX1 (green) and CTNNB1 (purple). (E) and (F) are the merged images for PROX1 and CTNNB1. Scale bar is 50 μm.
Next, the inventors performed western blot on the cells treated with 0.5 μM for 48 hours to determine whether the expression of these genes on the protein level was consistent with the PCR results. Three independent experiments of cultured hdLECs were performed, similarly to the quantitative RT-qPCR experiments. Protein levels of FOXC2, GATA2, KLF4, ITGα9, GJA4, activated β-catenin, total β-catenin, PROX1, and FOXO1 were quantified from western blot.
Human dermal lymphatic endothelial cells (hdLECs) purchased from Promocell (C-12216) were cultured in EBM-V2 (PromoCell, C-22121) media on fibronectin (20 μl/well) coated 6-well plates. hdLECs were treated with 4 different conditions: DMSO (1 μM), AS1842856 (EMD Millipore Corporation) 0.1 μM, 0.5 μM and 1 μM for 3 different time points: 24, 48, and 72 hours for qRT-PCR. For western blot, hdLECs were treated with 0.5 μM AS1842856 for 48 hours.
hdLECs were washed 3 times with 1×PBS and 1×RIPA buffer and 100× phosphatase inhibitor (Pierce™, Thermoscientific) was added. A cell scraper was used to scrape the hdLECs off the 6-well plate. hdLECs were pipetted and submerged in lysis RIPA solution. The lysate was collected in a 1.5 mL protein LoBind tube and incubated for 15 mins in ice on an orbital shaker (Belly button, IBI Scientific) for complete lysis. The lysates were then centrifuged for 20 mins at 18300 RPM at 4° C. to and the supernatant was collected in a separate Protein LoBind tube without disturbing the pellet. A Bicinchoninic acid assay (BCA assay, Pierce™, Thermofisher) was performed to calculate protein concentration according to manufacturer's instructions and 25 μg of the total protein was utilized to perform the western blot. The Invitrogen™ mini gel tank apparatus was used to run the western blot on a 4-12% Blot™ Bis Tris Plus polyacrylamide gel. Protein transfer to a PVDF membrane was carried out using an iBlot 2 dry blotting system (Lifesciences, Thermofisher) under the P0 module. The iBind Flex western system (Thermo Fisher Scientific) was used to process the mini blots utilizing an incubation time of >2.5 hours after which the blots were imaged using a Bio-Rad ChemiDoc imaging system.
Quantification analysis of western blot bands was performed in the following manner: 1. Unsaturated western blot images (.scn) were opened with Image Lab 6.1 (Bio-Rad); 2. Using the “lane and bands” tool on the left sidebar of Image Lab, the lanes were defined and adjusted manually; 3. Using the “lane and bands” tool, the bands were identified manually with “add” bands option; 4. The “lane profile” tool was used to omit background; 5. The standard and sample lanes were labeled on the “image info” tool; 6. The adjusted volume (Int) value was obtained using the “lane analysis” tool on Image Lab; 7. Each protein's band volume was normalized to the band volume of the housekeeping protein (b-Actin); 8. Relative expression of each protein was calculated by normalizing the band volume of the experimental group (AS 0.5) to its control (DMSO).

FOXO3 = FOXO3 (Homo sapiens, UniProt O43524); conditions: Nagashima et al., 2010; cited from earlier work
[2] = Nagashima et al., 2010; cited from earlier work

FOXO3, sequence (O43524 whole entry, species assumed): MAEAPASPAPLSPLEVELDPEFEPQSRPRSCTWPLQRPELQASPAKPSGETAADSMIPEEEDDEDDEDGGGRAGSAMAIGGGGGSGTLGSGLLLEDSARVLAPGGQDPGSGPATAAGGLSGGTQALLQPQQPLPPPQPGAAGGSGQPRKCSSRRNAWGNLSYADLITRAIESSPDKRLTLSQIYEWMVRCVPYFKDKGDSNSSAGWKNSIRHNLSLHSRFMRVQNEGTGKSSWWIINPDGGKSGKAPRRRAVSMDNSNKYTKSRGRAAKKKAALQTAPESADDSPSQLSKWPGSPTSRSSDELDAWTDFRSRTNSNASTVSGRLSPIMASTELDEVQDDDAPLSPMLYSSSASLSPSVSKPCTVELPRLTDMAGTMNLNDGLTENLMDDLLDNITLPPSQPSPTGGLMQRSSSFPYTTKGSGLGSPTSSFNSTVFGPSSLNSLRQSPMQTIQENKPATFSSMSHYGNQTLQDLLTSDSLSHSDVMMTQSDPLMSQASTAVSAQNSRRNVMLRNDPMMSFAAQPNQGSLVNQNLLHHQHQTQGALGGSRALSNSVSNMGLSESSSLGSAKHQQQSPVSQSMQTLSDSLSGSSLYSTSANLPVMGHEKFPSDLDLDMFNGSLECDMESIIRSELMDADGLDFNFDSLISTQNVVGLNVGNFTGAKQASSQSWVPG

With CCn1cc(C(=O)O)c(=O)c2c(N)c(F)c(NC3CCCCC3)cc21 [AS1842856] the “FOXC2 protein expression level” value [1] was “significantly upregulated”, the FOXO1 protein expression [1] was “did not change” and the “GATA2 protein expression level” value [1] was “significantly upregulated”. For the same molecule, the “GJA4 protein expression level” value [1] was “significantly upregulated”, the “ITGA9 protein expression level” value [1] was “significantly upregulated” and the “KLF4 protein expression level” value [1] was “significantly upregulated”. For the same molecule, the PROX1 protein level [1] was “did not alter”, the “amount of active (non-phosphorylated) β-catenin protein” value [1] was “increased significantly” and the “amount of p-GSK3β” value [1] was “significantly decreased”. The “amount of total GSK3β” value [1] was “significantly increased”, the “amount of total β-catenin protein” value [1] was “increased significantly” and the “effect on inhibiting the activity of FOXO3” value (FOXO3) was “minimal effect”. For the same molecule, the cell permeability [2] was “cell permeable”.
